Experimental data reported in patent US5185257A, “Thermostable xanthine oxidase from Arthrobacter luteus” (Toyo Boseki Kabushiki Kaisha, priority 1990, dated 1993).
Like-named read-outs stand apart in the source and are kept apart here.

What was measured:
[1] = tested on: Arthrobacter luteus ATCC 21606 thermostable xanthine oxidase (enzyme of the invention); test: km value of the thermostable xanthine oxidase of the invention; assay type: biochemical
Protocol: (§1) 50 mM tris-hydrochloric acid buffer (2.9 ml) and 0.1 ml of a 10 mM aqueous solution of xanthine are mixed, and this mixture is pre-heated at 37° C. After 0.01 ml of enzyme solution is added and gently mixed, the increase of absorbance at 293 nm per minute is determined using a spectrophotometer thermostated at 37° C. with distilled water as the control. The xanthine oxidase activity is expressed on the assumption that the amount of enzyme which produces 1 μmol of uric acid per minute under the conditions described above is taken as 1 unit (U).
as §1, with “After” for “50 mM tris-hydrochloric acid buffer (2.9 ml) and 0.1 ml of a 10 mM aqueous solution of xanthine are mixed, and this mixture is pre-heated at 37° C. After”, “550” for “293”, “quinone imine pigment” for “uric acid”

[2] = tested on: xanthine oxidase derived from Enterobacter cloacae; test: km value of the comparative xanthine oxidase from Enterobacter cloacae; assay type: biochemical; settings: Table 1, Comparative Example
Source text: Determinations were made for conventional xanthine oxidase derived from milk and xanthine oxidase derived from Enterobacter cloacae.

## O=c1[nH]cnc2nc[nH]c12 [hypoxanthine]
[1]; read-out: km value for hypoxanthine, pH 7.5
  Km: ~52 µM
[1]; read-out: km value hypoxanthine, Table 1, enzyme of Example 1
  Km: 52 µM
[2]; read-out: km value hypoxanthine
  Km: 83 µM

## O=c1[nH]c(=O)c2[nH]cnc2[nH]1 [xanthine]
[1]; Table 1, enzyme of Example 1, read-out: km value xanthine
  Km: 54 µM
[1]; pH 7.5, read-out: km value for xanthine
  Km: ~54 µM
[2]; read-out: km value xanthine
  Km: 73 µM
